According to US11555036B2, “FGFR4 inhibitor, preparation method therefor and pharmaceutical use thereof” (Abbisko Therapeutics Co., Ltd., priority 2016, dated 2023):

Key:
[1] = test system: Huh7 hepatocellular carcinoma cells; experiment: FGFR4 cell proliferation experiment, Cell Titer Glo (CTG); format: cell-based; details: Homo sapiens, Huh-7, 72 h, HuH-7 cells, 3 days; for IC50: concentration leading to absolute half growth inhibition; for EC50: concentration leading to half maximal growth inhibition
Method: II. FGFR4 Cell Proliferation Experiment
Cell Titer Glo (CTG) experiment was used in the present invention to evaluate the functional effects of the compounds on cell proliferation. […] Compound-mediated inhibition of cell proliferation/survival was assessed by quantification of cellular ATP levels using CTG reagent (Promega, #G7573). The specific experimental procedure was as follows:
2. 10 μL of medium containing a compound concentration of 10 fold of its final test concentration was added;
3. The dose effect was evaluated by a 5-fold serial dilution of the test compound, starting from 10 μM.
4. After cells incubation for 3 days at 37° C. under 5% CO2, the effect of the inhibitor on cell proliferation was quantified after adding 50 μL of CTG and testing with luminescence.

[2] = biological target: FGFR4 (Homo sapiens, UniProt P22455); experiment: FGFR4 Caliper Assay (in vitro biochemical kinase analysis of FGFR4); details: read-out: Enzymatic activity FGFR4 IC50
Sequence of FGFR4 (P22455 22-802): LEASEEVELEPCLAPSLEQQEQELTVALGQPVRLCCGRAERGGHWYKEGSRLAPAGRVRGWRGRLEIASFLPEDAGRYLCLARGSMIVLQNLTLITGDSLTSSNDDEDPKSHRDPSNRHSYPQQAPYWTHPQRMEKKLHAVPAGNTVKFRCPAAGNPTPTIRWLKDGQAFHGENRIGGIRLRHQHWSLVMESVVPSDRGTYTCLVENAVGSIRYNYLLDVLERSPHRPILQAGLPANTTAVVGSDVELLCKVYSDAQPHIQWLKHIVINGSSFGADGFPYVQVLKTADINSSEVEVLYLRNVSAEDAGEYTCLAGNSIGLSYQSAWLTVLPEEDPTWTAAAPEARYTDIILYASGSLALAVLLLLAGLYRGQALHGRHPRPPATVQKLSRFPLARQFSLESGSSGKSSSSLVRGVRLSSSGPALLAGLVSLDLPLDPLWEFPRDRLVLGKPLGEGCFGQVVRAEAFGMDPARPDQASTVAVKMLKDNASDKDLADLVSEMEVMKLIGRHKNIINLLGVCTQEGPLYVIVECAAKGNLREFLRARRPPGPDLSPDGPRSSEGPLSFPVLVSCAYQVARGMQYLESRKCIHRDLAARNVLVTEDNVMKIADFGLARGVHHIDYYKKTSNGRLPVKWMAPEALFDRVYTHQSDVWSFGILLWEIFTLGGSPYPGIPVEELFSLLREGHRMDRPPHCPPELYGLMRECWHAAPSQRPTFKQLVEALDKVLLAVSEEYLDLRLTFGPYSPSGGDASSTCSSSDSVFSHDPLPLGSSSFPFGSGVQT
Method: I. In Vitro Biochemical Kinase Analysis of FGFR4
FGFR4 Caliper Assay was used in the present invention to determine the inhibitory activities of the compounds against FGFR4. The detailed experimental procedure was as follows.
2. A reaction system is a mixture solution of 50 mM HEPES, pH 7.5, 1 mM DTT, 0.02% Tween 20, 0.02% BSA, 0.6% DMSO, 10 mM beta glycerol phosphate and 10 μM sodium orthovanadate and 16 mM MgCl2.
3. The reaction system was incubated at 30° C. for 40 minutes.
4. The reaction was terminated by adding a stop solution (100 mM HEPES, pH 7.5, 5% DMSO, 0.1% Caliper coating reagent, 10 mM EDTA and 0.015% Brij35).
5. The culture plate with the terminated kinase reaction was transferred to the Caliper LC 3000 workstation to read the data, the phosphorylated and unphosphorylated peptides were separated by using the Caliper microfluid migration shift technique, and the analyte was transferred by allowing a constant buffer flow through the chip, the migration of the substrate peptide was monitored by the labeled fluorescent signal, and the kinase activity was calculated by using the amount of the phosphate-based peptide formed.
6. Finally, IC50 values were determined by non-linear regression analysis of percent inhibition at different compound concentrations.

C=CC(=O)N[C@H]1COC[C@H]1Nc1ncc2cc(-c3c(Cl)c(OC)cc(OC)c3Cl)nc(N3CCOCC3)c2n1 [Example 686, N-((3R,4S)-4-((6-(2,6-dichloro-3,5-dimethoxyphenyl)-8-morpholino-pyrido[3,4-d]pyrimidin-2-yl)amino)tetra-hydrofuran-3-yl)acrylamide]
IC50 [1]: 8.8 nM
EC50 [1]: 5.4 nM
IC50 [2]: 8.2 nM

C=CC(=O)N[C@H]1COC[C@H]1Nc1ncc2cc(-c3c(Cl)c(OC)cc(OC)c3Cl)nc(N)c2n1 [Example 765, N-((3R,4S)-4-((8-amino-6-(2,6-di-chloro-3,5-dimethoxyphenyl)pyrido[3,4-d]pyrimidin-2-yl)amino)tetrahydro-furan-3-yl)acrylamide]
IC50 [1]: 656 nM
EC50 [1]: 421 nM
IC50 [2]: 158 nM

C=CC(=O)N[C@H]1COC[C@H]1Nc1ncc2cc(-c3c(Cl)c(OC)cc(OC)c3Cl)nc(NCCOC)c2n1 [Example 422, N-((3R,4S)-4-((6-(2,6-dichloro-3,5-di-methoxyphenyl)-8-((2-methoxyethyl)amino)pyrido[3,4-d]pyrimidin-2-yl)a-mino)tetrahydrofuran-3-yl)acrylamide]
IC50 [1]: 238 nM
EC50 [1]: 47 nM
IC50 [2]: 22.5 nM

C=CC(=O)N[C@H]1COC[C@H]1Nc1ncc2cc(-c3c(Cl)c(OC)cc(OC)c3Cl)nc(NCC(F)(F)F)c2n1 [Example 435, N-((3R,4S)-4-((6-(2,6-dichloro-3,5-di-methoxyphenyl)-8-((2,2,2-trifluoroeth-yl)amino)pyrido[3,4-d]pyrimidin-2-yl)amino)tetrahydrofuran-3-yl)acryl-amide]
IC50 [1]: 148 nM
EC50 [1]: 80 nM
IC50 [2]: 67 nM

C=CC(=O)N[C@H]1COC[C@H]1Nc1ncc2cc(-c3c(Cl)c(OC)cc(OC)c3Cl)nc(NCC(CO)(CO)CO)c2n1 [Example 758, N-((3R,4S)-4-((6-(2,6-dichloro-3,5-dimethoxypehnyl)-8-((3-hydroxy-2,2-bis(hydroxymethyl)propyl)amino)py-rido[3,4-d]pyrimidin-2-yl)amino)tetra-hydrofuran-3-yl)acrylamide]
IC50 [1]: 9.2 nM
EC50 [1]: 5.8 nM
IC50 [2]: 5.9 nM

C=CC(=O)N[C@H]1CCOC[C@H]1Nc1ncc2cc(-c3c(F)c(OC)cc(OC)c3F)nc(NC)c2n1 [Example 786, N-((3S,4S)-3-((6-(2,6-difluoro-3,5-dimethoxyphenyl)-8-(methylamino)py-rido[3,4-d]pyrimidin-2-yl)amino)tetra-hydro-2H-pyran-4-yl)acrylamide]
IC50 [1]: 47.6 nM
EC50 [1]: 38.4 nM
IC50 [2]: 17 nM

C=CC(=O)Nc1cccc(C)c1Nc1cc2c(=O)[nH]c(-c3c(Cl)c(OC)cc(OC)c3Cl)nc2cn1 [Example 5, N-(2-((2-(2,6-dichloro-3,5-dimethoxyphenyl)-4-oxo-3,4-dihydropyrido[3,4-d]pyrimidin-6-yl)amino)-3-methyl-phenyl)acrylamide]
IC50 [1]: > 10000 nM
EC50 [1]: > 10000 nM
IC50 [2]: 26.1 nM

C=CC(=O)Nc1cnn(CCOC)c1-c1ncc2cc(-c3c(Cl)c(OC)cc(OC)c3Cl)ncc2n1 [Example 715, N-(5-(6-(2,6-dichloro-3,5-dimethoxyphenyl)pyrido[3,4-d]pyrimidin-2-yl)-1-(2-methoxyethyl)-1H-pyrazol-4-yl)acrylamide]
IC50 [1]: 1920 nM
EC50 [1]: 1920 nM
IC50 [2]: 62.7 nM

C=CC(=O)N[C@H]1COC[C@H]1Nc1ncc2cc(-c3c(F)c(OC)cc(OC)c3F)nc(N3CC(C)(O)C3)c2n1 [Example 773, N-((3R,4S)-4-((6-(2,6-difluoro-3,5-dimethoxyphenyl)-8-(3-hydroxy-3-meth-ylazetidin-1-yl)pyrido[3,4-d]py-rimidin-2-yl)amino)tetrahydrofuran-3-yl)acrylamide]
IC50 [1]: 2.3 nM
EC50 [1]: 2 nM
IC50 [2]: 1.8 nM

C=CC(=O)N[C@H]1CCOC[C@H]1Nc1ncc2cc(-c3c(Cl)c(OC)cc(OC)c3Cl)ccc2n1 [BLU-554]
IC50 [1]: 126 nM
EC50 [1]: 27 nM
IC50 [2]: 18 nM

C=CC(=O)N[C@H]1COC[C@H]1Nc1ncc2cc(-c3c(Cl)c(OC)cc(OC)c3Cl)nc(N3CC(F)(F)C3)c2n1 [Example 663, N-((3R,4S)-4-((6-(2,6-dichloro-3,5-dimethoxyphenyl)-8-(3,3-difluoroaze-tidin-1-yl)pyrido[3,4-d]pyrimidin-2-yl)amino)tetrahydrofuran-3-yl)acryl-amide]
IC50 [1]: 3.5 nM
EC50 [1]: 2.3 nM
IC50 [2]: 4.5 nM

C=CC(=O)N[C@H]1COC[C@H]1Nc1ncc2cc(-c3c(Cl)c(OC)cc(OC)c3Cl)nc(NC[C@@H]3CCCO3)c2n1 [Example 438B, N-((3R,4S)-4-((6-(2,6-dichloro-3,5-di-methoxyphenyl)-8-((((S)-tetrahydro-furan-2-yl)methyl)amino)pyrido[3,4-d]pyrimidin-2-yl)amino)tetrahydro-furan-3-yl)acrylamide]
IC50 [1]: 35.1 nM
EC50 [1]: 15.8 nM
IC50 [2]: 9.1 nM

C=CC(=O)N[C@H]1COC[C@H]1Nc1ncc2cc(-c3c(Cl)c(OC)cc(OC)c3Cl)nc(N3CCC(OC)CC3)c2n1 [Example 693, N-((3R,4S)-4-((6-(2,6-dichloro-3,5-dimethoxyphenyl)-8-(4-methoxy-piperidin-1-l)pyrido[3,4-d]pyrimidin-2-yl)amino)tetrahydrofuran-3-yl)acryl-amide]
IC50 [1]: 2.1 nM
EC50 [1]: 1.3 nM
IC50 [2]: 5.6 nM

C=CC(=O)Nc1cccc(C)c1Nc1cc2c(=O)n(C)c(-c3c(Cl)c(OC)cc(OC)c3Cl)cc2cn1 [Example 1, N-(2-((7-(2,6-dichloro-3,5-dimethoxyphenyl)-6-methyl-5-oxo-5,6-dihydro-2,6-naphthyridin-3-yl)amino)-3-methylphenyl)acrylamide]
IC50 [1]: 2450 nM
EC50 [1]: 1530 nM
IC50 [2]: 13.9 nM

C=CC(=O)N[C@H]1CCOC[C@H]1Nc1ncc2cc(-c3c(F)c(OC)cc(OC)c3F)nc(N3CC4CC(C3)O4)c2n1 [Example 796, N-((3S,4S)-3-((8-(6-oxa-3-aza-bicyclo[3.1.1]heptan-3-yl)-6-(2,6-difluoro-3,5-dimethoxyphenyl)py-rido[3,4-d]pyrimidin-2-yl)a-mino)tetrahydro-2H-pyran-4-yl)acrylamide]
IC50 [1]: 47.8 nM
EC50 [1]: 38 nM
IC50 [2]: 23 nM

C=CC(=O)N[C@H]1COC[C@H]1Nc1ncc2cc(-c3c(F)c(OC)cc(OC)c3F)nc(N3CC(OC)C3)c2n1 [Example 659, N-((3R,4S)-4-((6-(2,6-difluoro-3,5-dimethoxyphenyl)-8-(3-methoxyazeti-din-1-yl)pyrido[3,4-d]pyrimidin-2-yl)a-mino)tetrahydrofuran-3-yl)acryl-amide]
IC50 [1]: 24.3 nM
EC50 [1]: 18 nM
IC50 [2]: 6.6 nM

C=CC(=O)N[C@H]1COC[C@H]1Nc1ncc2cc(-c3c(Cl)c(OC)cc(OC)c3Cl)nc(NC[C@H]3CCCO3)c2n1 [Example 438A, N-((3R,4S)-4-((6-(2,6-dichloro-3,5-di-methoxyphenyl)-8-((((R)-tetrahydro-furan-2-yl)methyl)amino)pyrido[3,4-d]pyrimidin-2-yl)amino)tetrahydro-furan-3-yl)acrylamide]
IC50 [1]: 17.8 nM
EC50 [1]: 9.9 nM
IC50 [2]: 3.5 nM

C=CC(=O)N[C@H]1COC[C@H]1Nc1ncc2cc(-c3c(F)c(OC)cc(OC)c3F)nc(NC)c2n1 [Example 764, N-((3R,4S)-4-((6-(2,6-difluoro-3,5-dimethoxyphenyl)-8-(methylamino)py-rido[3,4-d]pyrimidin-2-yl)amino)tetra-hydrofuran-3-yl)acrylamide]
IC50 [1]: 60.4 nM
EC50 [1]: 49.4 nM
IC50 [2]: 7 nM

C=CC(=O)N[C@H]1CCOC[C@H]1Nc1ncc2cc(-c3c(Cl)c(OC)cc(OC)c3Cl)ncc2n1 [Example 119, N-((3S,4S)-3-((6-(2,6-dichloro-3,5-dimethoxyphenyl)pyrido[3,4-d]pyrimidin-2-yl)amino)tetrahydro-2H-pyran-4-yl)acrylamide]
IC50 [1]: 457 nM
EC50 [1]: 78.1 nM
IC50 [2]: 166 nM

C=CC(=O)N[C@H]1COC[C@H]1Nc1ncc2cc(-c3c(Cl)c(OC)cc(OC)c3Cl)nc(N3CCC(OC)C3)c2n1 (stereo partly drawn) [Example 677, N-((3R,4S)-4-((6-(2,6-dichloro-3,5-dimethoxyphenyl)-8-(3-methoxypyrro-lidin-1-yl)pyrido[3,4-d]pyrimidin-2-yl)amino)tetrahydrofuran-3-yl)acryl-amide]
IC50 [1]: 5.3 nM
EC50 [1]: 3.7 nM
IC50 [2]: 7.4 nM

C=CC(=O)N[C@H]1COC[C@H]1Nc1ncc2cc(-c3c(Cl)c(OC)cc(OC)c3Cl)nc(N3CC(C)(OC)C3)c2n1 [Example 665, N-((3R,4S)-4-((6-(2,6-dichloro-3,5-di-methoxyphenyl)-8-(3-methoxy-3-methylazetidin-1-yl)pyrido[3,4-d]py-rimidin-2-yl)amino)tetrahydrofuran-3-yl)acrylamide]
IC50 [1]: 11.8 nM
EC50 [1]: 9.9 nM
IC50 [2]: 5.7 nM
